{
  "source": "patent US20020128320A1",
  "about": "“Method of administering calcium citrate” (UniServices Ltd., priority 2001, published 2002)",
  "key": {"[1]": {"conditions": "13 men, cited from earlier work"}, "[2]": {"assay": "Randomized placebo-controlled trial of calcium citrate: body weight", "format": "in vivo, normal postmenopausal women", "method": "A randomized controlled trial of calcium supplementation in 223 normal postmenopausal women aged 55 years or older. Women receiving therapy for osteoporosis were ineligible, as were those with any other major ongoing disease, including serum creatine greater than 0.2 mmol/L, untreated hypo- or hyperthyroidism, liver disease, serum 25-hydroxyvitamin D less than 10 μg/L, malignancy or metabolic bone disease. None of the subjects had been regular users of hormone replacement therapy, anabolic steroids, glucocorticoids or bisphosphonates in the previous 1 year. Lumbar spine bone density (Lunar Expert, Madison, Wis.) was not below the age-appropriate normal range. […]\n266 subjects were assessed for eligibility for the sub-study, and 223 entered the study, of which 111 women were randomized to calcium and 112 to placebo. […]\nTreatments were allocated randomly using a minimization algorithm balancing for current thiazide use, age and the occurrence of fractures resulting from minimal trauma after the age of 40 years. […] Calcium intake and physical activity were assessed using validated questionnaires (Angus et al., 1989; Wilson et al., 1986). Compliance was assessed by tablet counts.\nData were analyzed on an intention-to-treat basis, using a fixed effects mixed models approach to repeated measures using the MIXED procedure of SAS (SAS Institute, Cary, N.C.). […]"}, "[3]": {"assay": "Randomized placebo-controlled trial of calcium citrate: fasting serum lipids", "format": "in vivo, normal postmenopausal women", "method": "A randomized controlled trial of calcium supplementation in 223 normal postmenopausal women aged 55 years or older. Women receiving therapy for osteoporosis were ineligible, as were those with any other major ongoing disease, including serum creatine greater than 0.2 mmol/L, untreated hypo- or hyperthyroidism, liver disease, serum 25-hydroxyvitamin D less than 10 μg/L, malignancy or metabolic bone disease. None of the subjects had been regular users of hormone replacement therapy, anabolic steroids, glucocorticoids or bisphosphonates in the previous 1 year. Lumbar spine bone density (Lunar Expert, Madison, Wis.) was not below the age-appropriate normal range. In the present sub-study there was the further requirement that subjects were not receiving therapy for hyperlipidemia.\n266 subjects were assessed for eligibility for the sub-study, and 223 entered the study, of which 111 women were randomized to calcium and 112 to placebo. 20 women in the calcium group discontinued study medication as did 26 in the placebo group. […] The study was approved by the local ethics committee, and each subject gave written, informed consent. There were not significant differences between groups.\nTreatments were allocated randomly using a minimization algorithm balancing for current thiazide use, age and the occurrence of fractures resulting from minimal trauma after the age of 40 years. Subjects received 1 gram of elemental calcium daily as the citrate (Citracal, Mission Pharmacal, San Antonio Tex.) or identical placebo. They were asked to take two tablets (each containing 200 mg elemental calcium) before breakfast and three tablets in the evening. Calcium intake and physical activity were assessed using validated questionnaires (Angus et al., 1989; Wilson et al., 1986). Compliance was assessed by tablet counts.\nFasting total cholesterol, high-density lipoprotein cholesterol and triglycerides were measured in serum at baseline, 2 months, 6 months, and one year, using a Roche-Hitachi 747 autoanalyzer (Mannherim, Germany). The cholesterol assay used cholesterol oxidase, high-density lipoprotein measurement was by a direct non-precipitation method using PEG-modified enzymes (cholesterol oxidase), and triglycerides were assayed using a glycerol kinase/oxidase method after initial hydrolysis using lipoprotein lipase. Low-density lipoprotein was calculated using the Friedewald formula:\nLDL=TC−HDL−(0.45×triglyceride)\nData were analyzed on an intention-to-treat basis, using a fixed effects mixed models approach to repeated measures using the MIXED procedure of SAS (SAS Institute, Cary, N.C.). Significant main and interaction effects were explained using the method of Tukey. In complimentary analyses, the change from baseline for each continuous normal dependant variable was compared between treatment and placebo arms using Student's t-test for independent groups. A 5% significance level was maintained throughout these analyses."}, "[4]": {"conditions": "193 subjects; cited from earlier work"}, "[5]": {"conditions": "6 weeks; 56 subjects; cited from earlier work"}, "[6]": {"conditions": "intention-to-treat analysis, 12 months, 1 g elemental calcium daily"}},
  "note": "Entries after “also recorded” stand apart in the source; their conditions may differ. Like-named read-outs stand apart in the source and are kept apart here.",
  "data": [
    {"compound": "calcium citrate malate", "values": [
      {"measurement": "increase in saturated fat excretion", "setting": "[1]; food and tablets", "result": 7, "unit": "%"},
      {"measurement": "low-density lipoprotein levels decrease", "setting": "[1]; food and tablets", "result": 11, "unit": "%"},
      {"measurement": "reduction in plasma cholesterol", "setting": "[1]; food and tablets", "result": 6, "unit": "%"},
      {"measurement": "high-density lipoprotein levels change", "setting": "[1]; increased in some subjects and decreased in others", "result": "insignificant"}
    ]},
    {"compound": "O=C([O-])CC(O)(CC(=O)[O-])C(=O)[O-].O=C([O-])CC(O)(CC(=O)[O-])C(=O)[O-].[Ca+2].[Ca+2].[Ca+2]", "note": "[calcium citrate]", "values": [
      {"measurement": "body weight decrease (mean ±SE)", "setting": "[2]; intention-to-treat analysis, 1 g elemental calcium daily", "result": "289 ± 193", "unit": "g"},
      {"measurement": "between-groups effect on body weight", "setting": "[2]; versus placebo (P=0.54)", "result": "no between-groups effect on body weight"},
      {"measurement": "high-density lipoprotein/low-density lipoprotein ratio increase (summary statement)", "setting": "[3]; daily dose about 1 gram elemental calcium", "result": "~20", "unit": "%"},
      {"measurement": "predicted reduction of cardiovascular event rates", "setting": "[3]; extrapolated from lipid effects by comparison with statin trial data", "result": "20-30%"},
      {"measurement": "high-density lipoprotein/low-density lipoprotein ratio increase", "setting": "[3]; [6]", "result": 17.7, "unit": "%"},
      {"measurement": "total cholesterol fall (non-significant)", "setting": "[3]; [6]", "result": 3.7, "unit": "%"},
      {"measurement": "high-density lipoprotein increase above baseline", "setting": "[3]; intention-to-treat analysis, 12 months, 1 g elemental calcium daily, oral", "result": 7.3, "unit": "%"},
      {"measurement": "low-density lipoprotein decline", "setting": "[3]; intention-to-treat analysis, 12 months, 1 g elemental calcium daily, LDL calculated by Friedewald formula", "result": 7.8, "unit": "%"},
      {"measurement": "ratio of total cholesterol/high-density lipoprotein decline", "setting": "[3]; intention-to-treat analysis, one year, 1 g elemental calcium daily", "result": 9.3, "unit": "%"},
      {"measurement": "treatment effect on triglycerides", "setting": "[3]; intention-to-treat analysis, versus placebo (P=0.48)", "result": "no significant treatment effect"},
      {"measurement": "change in high-density lipoprotein cholesterol versus placebo", "setting": "[3]; protocol analysis excluding statin/fibrate users, FIG. 1A, P=0.05", "result": "increase in high-density lipoprotein; also recorded: significant treatment effects"},
      {"measurement": "change in low-density lipoprotein cholesterol versus placebo", "setting": "[3]; protocol analysis excluding statin/fibrate users, FIG. 1B, P=0.04", "result": "declined; also recorded: significant treatment effects"},
      {"measurement": "change in total cholesterol", "setting": "[3]; protocol analysis excluding statin/fibrate users, FIG. 2A", "result": "did not change significantly"},
      {"measurement": "treatment effect on triglycerides", "setting": "[3]; protocol analysis excluding statin/fibrate users, FIG. 3", "result": "no significant treatment effect"},
      {"measurement": "total cholesterol/high-density lipoprotein ratio decrease", "setting": "[3]; protocol analysis excluding subjects who commenced a statin or fibrate", "result": 9.6, "unit": "%"},
      {"measurement": "high-density lipoprotein/low-density lipoprotein ratio increase", "setting": "[3]; protocol analysis excluding subjects who commenced a statin or fibrate, FIG. 2B", "result": 17, "unit": "%"}
    ]},
    {"compound": "O=C([O-])[O-].[Ca+2]", "note": "[calcium carbonate]", "values": [
      {"measurement": "changes in total cholesterol, high-density lipoprotein level, and blood pressure", "setting": "[4]", "result": "statistically insignificant changes"},
      {"measurement": "change in total cholesterol", "setting": "[5]", "result": "statistically insignificant decrease"}
    ]}
  ]
}
